{"source": "patent US20230149558A1", "about": "“DUOCARMYCIN DERIVATIVE AND USE THEREOF” (The University of Tokyo, priority 2020, published 2023)", "system": "HeLa S3 cells", "assay": "Cytotoxicity of Duocarmycin SA and Duocarmycin SA-Valine (Cell Counting Kit-8)", "format": "cell-based", "conditions": "1.0E-11 to 6.0E-07, 48 hours, FIG. 11", "description": "In order to confirm the activities of Compound X (Duocarmycin SA) and Compound Y (Duocarmycin SA-Valin) shown in FIG. 9 and FIG. 10, cytotoxicity was confirmed using HeLa S3 cells.\nThe cells were seeded on a 96-well plate for cell culture, so that the cell count became 5×10^3 cells/well and the amount of the culture solution became 50 μL/well, and thereafter, the cells were cultured overnight. The concentration of Compound X or Compound Y was adjusted with a culture solution, so that the final concentration thereof became 600 nM. […]\nThe medium used in the overnight culture of the cells was exchanged with the prepared agent-diluted solution, and the cells were then cultured for 48 hours. […] The dosage and administration applied in the assay were determined in accordance with the instruction manuals included with the kit, and after addition of the reagent, the mixture was incubated for 1.5 hours at 37° C., in a CO2 incubator. Thereafter, the absorbance at 450 nm was measured, and a mean value was then calculated, followed by background collection. The control was set to be 100%, and the ratio of the cell growth under each condition to the control was calculated. […]"}
{"substance": "Duocarmycin SA-Valine", "values": [{"measurement": "effect of suppressing cell growth (ratio of cell growth to control)", "result": "higher effect of suppressing cell growth than Duocarmycin SA"}]}
